Measurements: US20250206738A1, “WRN INHIBITORS” (Nimbus Wadjet, Inc., priority 2023, published 2025)
Where two headings read alike, the source gives them in different places.

Tests used:
[1] = tested on: p21 induction in HCT 116 cells; test: p21 induction in cells (In-Cell Western, p21/GAPDH ratio); type: cell-based; conditions: 24 h compound incubation, read-out: P21_EC50
Method: Example 3: Method for Determining Effect on p21 Induction in Cells
The colon carcinoma cell line HCT 116 was obtained from ATCC and cultured in growth medium consisting of Mccoy's 5A Medium (Gibco 16600108) supplemented with 10% FBS (Transgene FS201-02) and 100 units/mL penicillin-streptomycin (Gibco 15140122) and maintained at 37° C. under 5% CO2. On the day of seeding, 2,000 cells in 30 μL of culture media were plated per well to Poly-D-Lysine 384 Well Black Clear Plates (Biocoat 356663) and incubated overnight at 37° C. under 5% CO2. The following day, compounds were serially diluted in DMSO for a total of 11 test concentrations. The typical starting concentration of compounds was 10 μM with 2-fold dilutions. Next, 150 nL of diluted compound was added in duplicate to the assay plate, using an Echo 655 (Labcyte). The plate was centrifuged at 500 RPM for 1 min and then incubated at 37° C. under 5% CO2 for 24 h. After 24h, medium was removed, and cells were fixed by adding 40 μL of 4% paraformaldehyde solution to each well and incubated for 20 min at room temperature. The plate was then washed 4 times with 100 μL per well of wash buffer (PBS with 0.1% Tween-20) using a microplate washer. Next, 30 μL of ice-cold methanol was added to each well and the plate was incubated at −20° C. for 10 min. The plate was washed 4 times with 100 μL per well of wash buffer by a microplate washer, then 30 μL per well of blocking buffer (Intercept PBS blocking buffer (LI-COR 927-70001) with 0.05% Tween-20) was added and the plate was incubated at room temperature with shaking for 2h. Next, to each test well, 20 μL of primary antibody solution (p21 Waf1/CIP (12D1) RabbitmAb (Cell Signaling Technologies 2947) diluted 1:1000 and GAPDH (D4C6R) Mouse mAb (Cell Signaling Technologies 97166) diluted 1:2000 in blocking buffer) was added and the plate was placed at 4° C., overnight. The following day, the plate was washed 5 times with 100 μL per well of wash buffer using a microplate washer for 5 min. 20 μL per well of secondary antibody (IRDye 680CW Goat anti-Mouse IgG (H+L) (LI-COR 926-68070) diluted 1: 2000 in Blocking Buffer and IRDye 800CW Goat anti-Rabbit IgG (H+L) (LI-COR 926-32211) diluted 1: 2000 in Blocking Buffer) was then added and the plate was stored for 2h in the dark at room temperature with shaking. The plate was then washed 4 times with 100 μL per well of wash buffer again using a microplate washer. Finally, the p21 signal and the GAPDH signal were quantified using a LI-COR Odyssey CLx Imager machine reading at 800 nm and 700 nm, respectively. Each plate contained DMSO control (low control) and an internal reference WRN inhibitor (high control) respectively. For quantitation, the 800 nm/700 nm ratio was calculated for each well to give fold p21 induction and then percent activation for each compound well was calculated as follows (100×(ratio cpd well−ratio low control)/(ratio high control−ratio low control)). EC50 values for each compound were generated after non-linear regression curve fitting using commercially available software.

[2] = molecular target: T1, human Werner helicase (WRN, Uniprot Q14191, amino acids 517-1235 with L1074F point mutation; WRN-BV08) (Homo sapiens, UniProt Q14191, L1074F); test: WRN (BV08) ADP-Glo assay; type: biochemical; conditions: WRN-BV08 (aa 517-1235, L1074F); read-out: ADP-Glo_hWRN_IC50
T1 construct: Uniprot Q14191, amino acids 517-1235 with L1074F point mutation; 8xHis (C, cleaved yes); TEV cleavage site (ENLYFQG) (C, cleaved yes); made in house; host or cells: Sf9 insect cells (baculovirus, pFastBac)
In short: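 WRN 517-1235 (L1074F, untagged, Sf9-expressed), 0.15 nM, preincubated with compound 15 min at 25 °C, then 60 min with […] and 0.1 nM DNA duplex in Bicine pH 7.5, 1 mM MgCl2, 1% DMSO. ADP-Glo luminescence; % inhibition vs NSC-617145 control, four-parameter IC50 fit.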

T1 sequence (Q14191 with tags, fused parts or gaps L1074F): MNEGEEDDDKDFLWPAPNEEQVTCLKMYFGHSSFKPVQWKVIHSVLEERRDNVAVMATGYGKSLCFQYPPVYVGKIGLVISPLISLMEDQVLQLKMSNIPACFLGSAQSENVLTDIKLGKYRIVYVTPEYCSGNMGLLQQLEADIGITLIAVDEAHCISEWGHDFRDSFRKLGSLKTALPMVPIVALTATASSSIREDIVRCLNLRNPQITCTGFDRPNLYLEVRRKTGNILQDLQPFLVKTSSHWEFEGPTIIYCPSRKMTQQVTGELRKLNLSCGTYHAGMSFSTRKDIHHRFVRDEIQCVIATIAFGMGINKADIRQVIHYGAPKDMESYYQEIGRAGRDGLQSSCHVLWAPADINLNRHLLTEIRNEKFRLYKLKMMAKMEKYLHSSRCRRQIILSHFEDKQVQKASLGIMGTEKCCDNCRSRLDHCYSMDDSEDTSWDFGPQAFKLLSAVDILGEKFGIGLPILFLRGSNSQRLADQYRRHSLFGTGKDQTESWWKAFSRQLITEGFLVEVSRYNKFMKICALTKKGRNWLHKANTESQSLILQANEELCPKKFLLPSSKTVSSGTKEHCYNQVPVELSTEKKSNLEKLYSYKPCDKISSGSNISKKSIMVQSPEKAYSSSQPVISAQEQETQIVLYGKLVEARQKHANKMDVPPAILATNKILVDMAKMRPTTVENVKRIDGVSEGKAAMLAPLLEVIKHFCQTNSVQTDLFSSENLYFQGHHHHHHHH

Compound | EC50 ([1]; Homo sapiens, HCT-116, 24 h) [nM] | IC50 [2] [nM] | EC50 [1] [nM]
CCc1c(N2CCN(C(=O)c3ncnc(C)c3O)CC2)c(=O)n2nc(-c3ccnc(OC)c3)nc2n1CC(=O)NC12CC(C(F)(F)F)(C1)C2 [I-4, 2-(5-ethyl-6-(4-(5-hydroxy-6-methylpyrimidine-4-carbonyl)piperazin-1-yl)-2-(2-methoxypyridin-4-yl)-7-oxo-[1,2,4]triazolo[1,5-a]pyrimidin-4(7H)-yl)-N-(3-(trifluoromethyl)bicyclo[1.1.1]pentan-1-yl)acetamide] | 2000 to 5000 | 5 to 50 | –
CCc1c(N2CCN(C(=O)c3ncc4c(c3O)CCO4)CC2)c(=O)n2nc(C3=CCOCC3)nc2n1CC(=O)NC12CC(C(C)(F)F)(C1)C2 [I-7, N-(3-(1,1-difluoroethyl)bicyclo[1.1.1]pentan-1-yl)-2-(2-(3,6-dihydro-2H-pyran-4-yl)-5-ethyl-6-(4-(4-hydroxy-2,3-dihydrofuro[2,3-c]pyridine-5-carbonyl)piperazin-1-yl)-7-oxo-[1,2,4]triazolo[1,5-a]pyrimidin-4(7H)-yl)acetamide] | 2000 to 5000 | 5 to 50 | –
CCc1c(N2CCN(C(=O)c3c(O)ccc4ncoc34)CC2)c(=O)n2nc(-c3ccnc(OC)c3)nc2n1CC(=O)NC12CC(C(F)(F)F)(C1)C2 [I-10, 2-(5-ethyl-6-(4-(6-hydroxybenzo[d]oxazole-7-carbonyl)piperazin-1-yl)-2-(2-methoxypyridin-4-yl)-7-oxo-[1,2,4]triazolo[1,5-a]pyrimidin-4(7H)-yl)-N-(3-(trifluoromethyl)bicyclo[1.1.1]pentan-1-yl)acetamide] | ≤ 500 | 5 to 50 | –
CCc1c(N2CCN(C(=O)c3ncc4c(c3O)CCO4)CC2)c(=O)n2nc(C3=CCN(C(C)=O)CC3)nc2n1CC(=O)NC12CC(C(F)(F)F)(C1)C2 [I-11, 2-(2-(1-acetyl-1,2,3,6-tetrahydropyridin-4-yl)-5-ethyl-6-(4-(4-hydroxy-2,3-dihydrofuro[2,3-c]pyridine-5-carbonyl)piperazin-1-yl)-7-oxo-[1,2,4]triazolo[1,5-a]pyrimidin-4(7H)-yl)-N-(3-(trifluoromethyl)bicyclo[1.1.1]pentan-1-yl)acetamide] | 2000 to 5000 | 5 to 50 | –
CCc1c(N2CCN(C(=O)c3ncnc(C)c3O)CC2)c(=O)n2nc(-c3ccnc(OC)c3)nc2n1CCC(=O)NC12CC(C(F)(F)F)(C1)C2 [I-13, 3-(5-ethyl-6-(4-(5-hydroxy-6-methylpyrimidine-4-carbonyl)piperazin-1-yl)-2-(2-methoxypyridin-4-yl)-7-oxo-[1,2,4]triazolo[1,5-a]pyrimidin-4(7H)-yl)-N-(3-(trifluoromethyl)bicyclo[1.1.1]pentan-1-yl)propanamide] | > 5000 | > 500 | –
CCc1c(N2CCN(C(=O)c3ncc4c(c3O)CCO4)CC2)c(=O)n2nc(C3=CCOCC3)nc2n1CC(=O)NC12CC(CC)(C1)C2 [I-14, 2-(2-(3,6-dihydro-2H-pyran-4-yl)-5-ethyl-6-(4-(4-hydroxy-2,3-dihydrofuro[2,3-c]pyridine-5-carbonyl)piperazin-1-yl)-7-oxo-[1,2,4]triazolo[1,5-a]pyrimidin-4(7H)-yl)-N-(3-ethylbicyclo[1.1.1]pentan-1-yl)acetamide] | 500 to 2000 | 5 to 50 | –
CCc1c(N2CCN(C(=O)c3ncc4c(c3O)CCO4)CC2)c(=O)n2nc(C3=CCOCC3)nc2n1CC(=O)NC12CC(C(C)C)(C1)C2 [I-15, 2-(2-(3,6-dihydro-2H-pyran-4-yl)-5-ethyl-6-(4-(4-hydroxy-2,3-dihydrofuro[2,3-c]pyridine-5-carbonyl)piperazin-1-yl)-7-oxo-[1,2,4]triazolo[1,5-a]pyrimidin-4(7H)-yl)-N-(3-isopropylbicyclo[1.1.1]pentan-1-yl)acetamide] | 500 to 2000 | 5 to 50 | –
CCc1c(N2CCN(C(=O)c3ncnc(C)c3O)CC2)c(=O)c2nc(-c3ccnc(OC)c3)oc2n1CC(=O)NC12CC(C(F)(F)F)(C1)C2 [I-16, 2-(5-ethyl-6-(4-(5-hydroxy-6-methylpyrimidine-4-carbonyl)piperazin-1-yl)-2-(2-methoxypyridin-4-yl)-7-oxooxazolo[5,4-b]pyridin-4(7H)-yl)-N-(3-(trifluoromethyl)bicyclo[1.1.1]pentan-1-yl)acetamide] | > 5000 | 5 to 50 | –

The remaining lines, values ahead:

EC50 ([1]; Homo sapiens, HCT-116, 24 h) [nM] | IC50 [2] [nM] | EC50 [1] [nM] | Compound
≤ 500 | 5 to 50 | – | CCc1c(N2CCN(C(=O)c3ncnc(C)c3O)[C@H]3CC[C@@H]32)c(=O)c2nn(C3=CCOC(C)C3)nc2n1CC(=O)NC12CC(C3CC3)(C1)C2 (single isomer, unassigned) [I-169]
– | 5 to 50 | ≤ 500 | CCc1c(N2CCN(C(=O)c3ncnc(C)c3O)[C@H]3CC[C@@H]32)c(=O)c2nn(C3=CCOC(C)C3)nc2n1CC(=O)NC12CC(C3CC3)(C1)C2 (single isomer, unassigned) [I-170]
> 5000 | 100 to 500 | – | CCc1c(N2CCN(C(=O)c3ncnc(C)c3O)CC2)c(=O)c2nc(N(C)C)cnc2n1CC(=O)NC12CC(C(F)(F)F)(C1)C2 [I-1, 2-(2-(dimethylamino)-6-ethyl-7-(4-(5-hydroxy-6-methylpyrimidine-4-carbonyl)piperazin-1-yl)-8-oxopyrido[2,3-b]pyrazin-5(8H)-yl)-N-(3-(trifluoromethyl)bicyclo[1.1.1]pentan-1-yl)acetamide]
> 5000 | 5 to 50 | – | CCc1c(N2CCN(C(=O)c3ncnc(C)c3O)CC2)c(=O)c2nc3cc(C)sc3nc2n1CC(=O)NC12CC(C(F)(F)F)(C1)C2 [I-3, 2-(7-ethyl-6-(4-(5-hydroxy-6-methylpyrimidine-4-carbonyl)piperazin-1-yl)-2-methyl-5-oxopyrido[2,3-b]thieno[3,2-e]pyrazin-8(5H)-yl)-N-(3-(trifluoromethyl)bicyclo[1.1.1]pentan-1-yl)acetamide]
500 to 2000 | 5 to 50 | – | CCc1c(N2CCN(C(=O)c3ncc4c(c3O)CCO4)CC2)c(=O)n2nc(C3=CCOCC3)nc2n1CC(=O)NC12CC(C3CC3)(C1)C2 [I-9, N-(3-cyclopropylbicyclo[1.1.1]pentan-1-yl)-2-(2-(3,6-dihydro-2H-pyran-4-yl)-5-ethyl-6-(4-(4-hydroxy-2,3-dihydrofuro[2,3-c]pyridine-5-carbonyl)piperazin-1-yl)-7-oxo-[1,2,4]triazolo[1,5-a]pyrimidin-4(7H)-yl)acetamide]
2000 to 5000 | 5 to 50 | – | CCc1c(N2CCN(C(=O)c3ncnc(C)c3O)CC2)c(=O)c2oc(-c3ccnc(OC)c3)nc2n1CC(=O)NC12CC(C(F)(F)F)(C1)C2 [I-17, 2-(5-ethyl-6-(4-(5-hydroxy-6-methylpyrimidine-4-carbonyl)piperazin-1-yl)-2-(2-methoxypyridin-4-yl)-7-oxooxazolo[4,5-b]pyridin-4(7H)-yl)-N-(3-(trifluoromethyl)bicyclo[1.1.1]pentan-1-yl)acetamide]
> 5000 | 5 to 50 | – | CCc1c(N2CCN(C(=O)c3ncnc(C)c3O)CC2)c(=O)n2nc(C3=CCN(C(=O)COC)CC3)nc2n1CC(=O)NC12CC(C3CC3)(C1)C2 [I-18, N-(3-cyclopropylbicyclo[1.1.1]pentan-1-yl)-2-(5-ethyl-6-(4-(5-hydroxy-6-methylpyrimidine-4-carbonyl)piperazin-1-yl)-2-(1-(2-methoxyacetyl)-1,2,3,6-tetrahydropyridin-4-yl)-7-oxo-[1,2,4]triazolo[1,5-a]pyrimidin-4(7H)-yl)acetamide]
